From US9557338B2 (SIGNAL PHARMACEUTICALS, LLC, priority 2012, dated 2017) come the findings set out here.

The structures appear in SMILES notation. pIC50: −log10 of the molar value. Bounds are passed on as bounds.

Common to all, as to type: cell-based
One test has as its system p70S6K. The experiment in a line: Luminex multiplex assay, p70S6K phosphorylation in cell lysates. Conditions: PC3 cell line; read-out: Luminex p70S6K.
The subject of another test is Phospho-GSK3β(S9). The experiment in a line: Luminex multiplex assay, Phospho-GSK3β(S9). Conditions: PC3 cell line; read-out: Luminex GSK-3β. The procedure, abridged:
(§1)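 Cells (PC3; HCT-116, MDA-MB-231 and HT29 with 500 ng/mL recombinant human IGF-I for the final 10 min) treated with compound or rapamycin over a concentration range for 1 h at 37° C, 5% CO2. Lysates read by bead-based Luminex sandwich immunoassay, 3 h at room temperature, RPE anti-rabbit detection, quantified against phosphoprotein standard curves.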

In another test the test system is Phospho-PRAS40(T246). The experiment in a line: Luminex multiplex assay, Phospho-PRAS40(T246). Conditions: PC3 cell line; read-out: Luminex PRAS40. The procedure, abridged:
as §1

Take `COCCN1CC(=O)Nc2ncc(-c3cnc(C(N)=O)cc3C)nc21` [C-86]: the pIC50 in the test with p70S6K was 6.51; in the test with Phospho-GSK3β(S9) it was 6.03; in the test on Phospho-PRAS40(T246), less than 5.82.

With `O=C1CN(CCC2CCOCC2)c2nc(-c3cccc(-c4ncn[nH]4)c3)cnc2N1` [C-87], the figures for the pIC50 with p70S6K, with Phospho-GSK3β(S9) and in the test on Phospho-PRAS40(T246) were 6.04, less than 5.82 and less than 5.82, respectively.

Take `COCCN1CC(=O)Nc2ncc(-c3cnc(-c4ncn[nH]4)cc3C)nc21` [C-88]: the pIC50 with p70S6K was 8.52; in the test on Phospho-GSK3β(S9), 8.10; with Phospho-PRAS40(T246), 7.64.

In the case of `COC1CCC(CN2C(=O)CNc3ncc(-c4cnc(C(N)=O)cc4C)nc32)CC1` (stereo not drawn) [C-89], the pIC50 in the test on p70S6K is 6.99; in the test with Phospho-GSK3β(S9) it was 6.07; in the test on Phospho-PRAS40(T246) it was 5.99.

As for `NC(=O)c1cccc(-c2cnc3c(n2)N(CCC2CCOCC2)C(=O)CN3)c1` [C-90], the values for the pIC50 in the test with p70S6K, in the test on Phospho-GSK3β(S9) and in the test on Phospho-PRAS40(T246) were 5.88, less than 5.82 and less than 5.82, respectively.

Take `COC1CCC(CN2C(=O)CNc3ncc(-c4cnc(-c5nc[nH]n5)cc4C)nc32)CC1` (stereo not drawn) [C-91]: the pIC50 in the test on p70S6K is 8.70; in the test on Phospho-GSK3β(S9) it was 8.40; in the test with Phospho-PRAS40(T246) it was 8.15.

For `Cc1nc(-c2nnc[nH]2)ccc1-c1cnc2c(n1)N(Cc1cccc(C#N)c1)C(=O)CN2` [C-92], the pIC50 in the test on p70S6K is 9.00; with Phospho-GSK3β(S9), 8.10; with Phospho-PRAS40(T246), 8.05.

Turning to `O=C1CNc2ncc(-c3cn[nH]c3)nc2N1CCC1CCOCC1` [C-94], the figures for the pIC50 with p70S6K, with Phospho-GSK3β(S9) and in the test with Phospho-PRAS40(T246) were 6.68, less than 5.82 and less than 5.82, respectively.

With `COC1CCC(CN2C(=O)CNc3ncc(-c4cnc(C(N)=O)cc4C)nc32)CC1` (stereo not drawn) [C-95], the pIC50 was 7.54 in the test on p70S6K, 6.63 with Phospho-GSK3β(S9) and 6.51 with Phospho-PRAS40(T246).

On to `Cc1cc(C(N)=O)ncc1-c1cnc2c(n1)N(CC1CCOCC1)C(=O)CN2` [C-96], for which the pIC50 was 6.89 with p70S6K, 6.14 with Phospho-GSK3β(S9) and 6.04 with Phospho-PRAS40(T246).

For `CCN1C(=O)CNc2ncc(-c3ccc4cn[nH]c4c3)nc21` [C-97], the pIC50 with p70S6K, in the test on Phospho-GSK3β(S9) and in the test with Phospho-PRAS40(T246) was less than 5.82 in each case.

`COC1CCC(N2C(=O)CNc3ncc(-c4ccc(C(C)(C)O)[n+]([O-])c4)nc32)CC1` (stereo not drawn) [C-98]: the pIC50 was 6.08 with p70S6K, less than 5.82 in the test on Phospho-GSK3β(S9) and less than 5.82 with Phospho-PRAS40(T246).

Take `Cc1nc(-c2nnc[nH]2)ccc1-c1cnc2c(n1)N(C)C(=O)CN2` [C-99]: the pIC50 was 7.96 in the test with p70S6K, 6.46 in the test on Phospho-GSK3β(S9) and 6.56 in the test with Phospho-PRAS40(T246).

In the case of `Nc1ccc(-c2cnc3c(n2)N(CCC2CCOCC2)C(=O)CN3)cn1` [C-100], the pIC50 is 7.82 in the test with p70S6K, 6.22 with Phospho-GSK3β(S9) and 6.25 in the test with Phospho-PRAS40(T246).

For the compound `O=C1CNc2ncc(-c3ccncc3)nc2N1CCC1CCOCC1` [C-101], the pIC50 was 6.33 in the test on p70S6K, less than 5.82 in the test with Phospho-GSK3β(S9) and less than 5.82 with Phospho-PRAS40(T246).

Take `CCN1C(=O)CNc2ncc(-c3cccc4[nH]ncc34)nc21` [C-102]: the pIC50 in the test with p70S6K, in the test on Phospho-GSK3β(S9) and in the test with Phospho-PRAS40(T246) was less than 5.82 throughout.

Regarding `COCCN1C(=O)CNc2ncc(-c3cnc4[nH]ccc4c3)nc21` [C-104], the pIC50 in the test with p70S6K was more than 8.82; in the test with Phospho-GSK3β(S9), 6.77; in the test on Phospho-PRAS40(T246), 6.97.

In the case of `COc1ccc(-c2cnc3c(n2)N(CCC2CCOCC2)C(=O)CN3)cn1` [C-105], the pIC50 with p70S6K was 6.60; with Phospho-GSK3β(S9), less than 5.82; with Phospho-PRAS40(T246), less than 5.82.

With `O=C1CNc2ncc(-c3cncnc3)nc2N1CCC1CCOCC1` [C-106], the pIC50 in the test with p70S6K, in the test with Phospho-GSK3β(S9) and in the test on Phospho-PRAS40(T246) was less than 5.82 each time.

With `COCCN1C(=O)CNc2ncc(-c3ccc4cn[nH]c4c3)nc21` [C-107], the pIC50 in the test on p70S6K is 6.84; in the test on Phospho-GSK3β(S9) it was less than 5.82; in the test on Phospho-PRAS40(T246) it was less than 5.82.

On to `COC1CCC(N2CC(=O)Nc3ncc(-c4ccc(-c5nc[nH]n5)c(F)c4C)nc32)CC1` (stereo not drawn) [C-108], for which the pIC50 in the test on p70S6K is 8.30; in the test with Phospho-GSK3β(S9), 7.43; in the test on Phospho-PRAS40(T246), 7.51.
